± gives the expanded uncertainty stated by the source.
Legend:
[1] = 92.3 kPa, Liquid; for viscosity: Concentric cylinders viscometry; for speed of sound: Frequency=3 MHz, Single path-length method; for mass density: Vibrating tube method
[2] = xn = mol fraction of the nth substance listed; settings: 92.3 kPa, Liquid, x2 = 0; for viscosity: Concentric cylinders viscometry; for mass density: Vibrating tube method

Compound | viscosity ([1]; 293.15 K) [mPa·s] | speed of sound ([1]; 293.15 K) [m/s] | mass density ([1]; 293.15 K) [kg/m3] | viscosity ([1]; 298.15 K) [mPa·s] | speed of sound ([1]; 298.15 K) [m/s] | viscosity ([1]; 303.15 K) [mPa·s] | speed of sound ([1]; 303.15 K) [m/s] | mass density ([1]; 303.15 K) [kg/m3] | viscosity ([1]; 308.15 K) [mPa·s] | speed of sound ([1]; 308.15 K) [m/s] | mass density ([1]; 298.15 K) [kg/m3] | mass density ([1]; 308.15 K) [kg/m3] | viscosity ([2]; 293.15 K) [mPa·s] | mass density ([2]; 293.15 K) [kg/m3] | viscosity ([2]; 298.15 K) [mPa·s] | mass density ([2]; 298.15 K) [kg/m3] | viscosity ([2]; 303.15 K) [mPa·s] | mass density ([2]; 303.15 K) [kg/m3] | viscosity ([2]; 308.15 K) [mPa·s] | mass density ([2]; 308.15 K) [kg/m3]
OCCO [1,2-ethanediol] | 20.61 ± 2.9 | 1666.5 ± 1.8 | 1113.72 ± 3 | 16.22 ± 2.3 | 1654.7 ± 1.8 | 13.87 ± 1.9 | 1642.9 ± 1.8 | 1106.71 ± 3 | 11.48 ± 1.6 | 1631.2 ± 1.8 |  |  |  |  |  |  |  |  |  | 
OCCOCCO [diethylene glycol] | 35.89 ± 5 | 1591 ± 2 | 1116.73 ± 3 | 27.67 ± 3.9 | 1579.1 ± 2 | 22.48 ± 3.1 | 1567.2 ± 2 | 1109.6 ± 3 | 18.27 ± 2.6 | 1555.3 ± 2 | 1113.17 ± 3 | 1106.01 ± 3 |  |  |  |  |  |  |  | 
CCO [ethanol] | 1.202 ± 0.17 | 1160.7 ± 1.8 | 789.547 ± 3 | 1.091 ± 0.15 | 1143.5 ± 1.8 | 0.992 ± 0.14 | 1126.4 ± 1.8 | 780.941 ± 3 | 0.9039 ± 0.13 | 1109.6 ± 1.8 | 785.26 ± 3 | 776.592 ± 3 |  |  |  |  |  |  |  | 
OCC(O)CO [glycerol] | 1408.4 ± 210 | 1925.5 ± 1.8 | 1260.73 ± 3 | 900.44 ± 130 | 1911.9 ± 1.8 | 593.09 ± 85 | 1899.6 ± 1.8 | 1254.48 ± 3 | 401.76 ± 57 | 1888.1 ± 1.8 | 1257.65 ± 3 | 1251.38 ± 3 |  |  |  |  |  |  |  | 
OCCOCCOCCO [triethylene glycol] | 48.06 ± 6.7 | 1626.8 ± 2 | 1123.48 ± 3 | 36.88 ± 5.2 | 1611.6 ± 2 | 29.59 ± 4.1 | 1596.6 ± 2 | 1115.7 ± 3 | 23.72 ± 3.3 | 1581.7 ± 2 | 1119.59 ± 3 | 1111.81 ± 3 |  |  |  |  |  |  |  | 
O [water] | 1.067 ± 0.15 |  | 998.429 ± 3 | 0.8969 ± 0.13 |  | 0.8385 ± 0.12 |  | 995.867 ± 3 | 0.7589 ± 0.11 |  | 997.267 ± 3 | 994.252 ± 3 |  |  |  |  |  |  |  | 
O [water] + CCO |  |  |  |  |  |  |  |  |  |  |  |  | 1.067 ± 0.15 | 998.429 ± 3 | 0.8969 ± 0.13 | 997.267 ± 3 | 0.8385 ± 0.12 | 995.867 ± 3 | 0.7589 ± 0.11 | 994.252 ± 3
O [water] + OCC(O)CO |  |  |  |  |  |  |  |  |  |  |  |  | 1.067 ± 0.15 | 998.429 ± 3 | 0.8969 ± 0.13 | 997.267 ± 3 | 0.8385 ± 0.12 | 995.867 ± 3 | 0.7589 ± 0.11 | 994.252 ± 3
O [water] + OCCO |  |  |  |  |  |  |  |  |  |  |  |  | 1.067 ± 0.15 | 998.429 ± 3 | 0.8969 ± 0.13 | 997.267 ± 3 | 0.8385 ± 0.12 | 995.867 ± 3 | 0.7589 ± 0.11 | 994.252 ± 3
O [water] + OCCOCCO |  |  |  |  |  |  |  |  |  |  |  |  | 1.067 ± 0.15 | 998.429 ± 3 | 0.8969 ± 0.13 | 997.267 ± 3 | 0.8385 ± 0.12 | 995.867 ± 3 | 0.7589 ± 0.11 | 994.252 ± 3
O [water] + OCCOCCOCCO |  |  |  |  |  |  |  |  |  |  |  |  | 1.067 ± 0.15 | 998.429 ± 3 | 0.8969 ± 0.13 | 997.267 ± 3 | 0.8385 ± 0.12 | 995.867 ± 3 | 0.7589 ± 0.11 | 994.252 ± 3

— the NIST ThermoML archive (doi:10.1016/j.jct.2018.02.022)
